Like-named read-outs stand apart in the source and are kept apart here.

In series [1] the test system is anoxic HT29 cell suspensions. Nature of the series: Rate constant for metabolic consumption kmet in anoxic single cell suspensions. The series is classed as in vitro ADME. As to conditions: scaled to the cell density in MCLs.
Series [2] can be described thus: One electron reduction potential E. The settings on record: anaerobic aqueous solution, pH 7.0, pulse radiolysis. It counts as physicochemical.
For a further series, the system named is anoxic HT29 tumor tissue. Nature of the series: Penetration half distance X½ calculated from D and kmet. As to conditions: for EVT based on X½ (in words): compared with TPZ.
In series [3] the test system is HT29 cells. Kind of series: IC50 assay, 4 h drug exposure under aerobic and anoxic conditions, HT29. The series is classed as cell-based. The settings on record: criterion HCR > 20 in the PK/PD model.
The conditions of series [4]: calculated using ACD logD, pH 7.4; cited from earlier work.
For series [5] the following is noted: culture medium; cited from earlier work.
For series [6] the following is noted: cited from earlier work; for E(1): one electron reduction potential.
For series [7] the following is noted: side chain, calculated using ACD pKa; cited from earlier work.
Series [8] concerns HT29 cells. As to conditions: read-out: HT29 IC50 hypox; HT29, anoxic; cited from earlier work.
Another series concerns SiHa cells. The settings on record: cited from earlier work.
A further series has as its system HT29 MCLs. The settings on record: calculated; cited from earlier work.
The subject of series [9] is anoxic HT29 cell suspensions. As to conditions: scaled to MCL cell density; cited from earlier work.

As to `Nc1n[n+]([O-])c2cc3c(cc2[n+]1[O-])CCC3` [TTO 3], in series [1], the “kmet (first order rate constant for metabolism)” value (from here on “kmet”) was 0.47 min⁻¹. For the compound `CN(C)CCNc1n[n+]([O-])c2cc3c(cc2[n+]1[O-])CCC3` [TTO 4], the “E(1)” value in [2] is listed as −486 mV. Moreover, the “kmet” value in [1] amounted to 0.44 min⁻¹. As for `CCN(CC)CCNc1n[n+]([O-])c2cc3c(cc2[n+]1[O-])CCC3` [TTO 5], in [1], the “kmet” value came to 1.08 min⁻¹. As for `CCCN(CCC)CCNc1n[n+]([O-])c2cc3c(cc2[n+]1[O-])CCC3` [TTO 6], in [1], the “kmet” value came out at 1.07 min⁻¹. Consider `[O-][n+]1nc(NCCN2CCCCC2)[n+]([O-])c2cc3c(cc21)CCC3` [TTO 7], for which, in series [1], the “kmet” value amounted to 1.25 min⁻¹.

For `[O-][n+]1nc(NCCCN2CCOCC2)[n+]([O-])c2cc3c(cc21)CCC3` [TTO 8], the “kmet” value in series [1] came to 0.19 min⁻¹. Turning to `CN(C)CCNc1n[n+]([O-])c2c3c(ccc2[n+]1[O-])CCC3` [TTO 9], the “E(1)” value in series [2] was −480 mV. Moreover, in [1], the “kmet” value came to 0.74 min⁻¹. In the case of `CCN(CC)CCNc1n[n+]([O-])c2c3c(ccc2[n+]1[O-])CCC3` [TTO 10], the “kmet” value in [1] turned out to be 0.97 min⁻¹. For `CCCN(CCC)CCNc1n[n+]([O-])c2c3c(ccc2[n+]1[O-])CCC3` [TTO 11], the “kmet” value in series [1] was 0.73 min⁻¹. `[O-][n+]1nc(NCCN2CCCCC2)[n+]([O-])c2ccc3c(c21)CCC3` [TTO 12]: the “kmet” value in series [1] came out at 1.60 min⁻¹. Take `[O-][n+]1nc(NCCCN2CCOCC2)[n+]([O-])c2ccc3c(c21)CCC3` [TTO 13]: the “E(1)” value in series [2] is on record as −510 mV. Also, in series [1], the “kmet” value worked out at 0.20 min⁻¹.

For `CC1Cc2cc3c(cc2C1)[n+]([O-])c(NCCN(C)C)n[n+]3[O-]` (centres unmarked) [TTO 14], the “kmet” value in series [1] was 1.49 min⁻¹. Regarding `CC1Cc2cc3c(cc2C1)[n+]([O-])c(NCCCN1CCOCC1)n[n+]3[O-]` (centres unmarked) [TTO 15], the “kmet” value in series [1] was found to be 0.13 min⁻¹. Consider `[O-][n+]1nc(NCCCN2CCOCC2)[n+]([O-])c2cc3c(cc21)CCCC3` [TTO 17], for which the “kmet” value in series [1] is 0.69 min⁻¹. On to `CN(C)CCNc1n[n+]([O-])c2c3c(ccc2[n+]1[O-])CCCC3` [TTO 18], for which the “kmet” value in [1] was 1.78 min⁻¹. As for `CN(C)CCNc1n[n+]([O-])c2cc3c(cc2[n+]1[O-])CCCCC3` [TTO 19], in series [2], the “E(1)” value was −488 mV. The “kmet” value in series [1] was 1.52 min⁻¹.

Turning to `[O-][n+]1nc(NCCCN2CCOCC2)[n+]([O-])c2cc3c(cc21)OCC3` [TTO 21], the “kmet” value in series [1] turned out to be 0.20 min⁻¹. For the same compound, in the series with anoxic HT29 tumor tissue, the “EVT based on X½ (in words)” value is reported as “predicted to display improved EVT”. On to `Nc1n[n+]([O-])c2cc3c(cc2[n+]1[O-])OCC3` [TTO 22], for which, in the series with HT29 cells [3], the “hypoxic selectivity (in words)” value is listed as “failed to pass the criterion for hypoxic selectivity (HCR > 20)”. Consider `CN(C)CCNc1n[n+]([O-])c2cc3c(cc2[n+]1[O-])OCC3` [TTO 23], for which, in series [2], the “E(1)” value is −545 mV. Also, the “kmet” value in series [1] amounted to 0.60 min⁻¹. As to `CCN(CC)CCNc1n[n+]([O-])c2cc3c(cc2[n+]1[O-])OCC3` [TTO 24], the “kmet” value in [1] stood at 0.26 min⁻¹. In the series on anoxic HT29 tumor tissue, the “EVT based on X½ (in words)” value is on record as “predicted to display improved EVT”. As for `[O-][n+]1nc(NCCCN2CCOCC2)[n+]([O-])c2cc3c(cc21)CCO3` [TTO 25], the “kmet” value in series [1] is 0.23 min⁻¹. For the same compound, the “EVT based on X½ (in words)” value in the series with anoxic HT29 tumor tissue is “predicted to display improved EVT”. Regarding `CN(C)CCNc1n[n+]([O-])c2c3c(ccc2[n+]1[O-])OCCC3` [TTO 29], the “kmet” value in [1] was 0.59 min⁻¹. Take `CCN1Cc2cc3c(cc2C1)[n+]([O-])c(N)n[n+]3[O-]` [TTO 31]: the “E(1)” value in series [2] is on record as −390 mV. Moreover, the “kmet” value in series [1] came out at 2.20 min⁻¹. Regarding `CCNc1n[n+]([O-])c2cc3c(cc2[n+]1[O-])CN(C)CC3` [TTO 32], the “E(1)” value in series [2] is −462 mV. Turning to `CC1Cc2cc3c(cc2C1)[n+]([O-])c(CCCO)n[n+]3[O-]` (centres unmarked) [TTO 33], the “kmet” value in series [1] was found to be 0.24 min⁻¹. In the case of `CCc1n[n+]([O-])c2cc3c(cc2[n+]1[O-])CC(CO)C3` (centres unmarked) [TTO 35], the “E(1)” value in series [2] is reported as −452 mV. Further, the “kmet” value in [1] was 0.47 min⁻¹. For `CCc1n[n+]([O-])c2cc3c(cc2[n+]1[O-])CC(CN1CCOCC1)C3` (centres unmarked) [TTO 36], in series [1], the “kmet” value was 0.54 min⁻¹. For the compound `[O-][n+]1nc(CCCN2CCOCC2)[n+]([O-])c2cc3c(cc21)CC(CO)C3` (centres unmarked) [TTO 37], the “E(1)” value in series [2] is reported as −408 mV. Besides, the “kmet” value in [1] was determined as 0.90 min⁻¹. In the case of `CCc1n[n+]([O-])c2cc3c(cc2[n+]1[O-])CC(CCO)C3` (centres unmarked) [TTO 38], the “kmet” value in series [1] amounted to 0.54 min⁻¹.

As for `CCc1n[n+]([O-])c2cc3c(cc2[n+]1[O-])CC(CCN1CCOCC1)C3` (centres unmarked) [TTO 39], the “E(1)” value in [2] was −431 mV. For the same compound, in series [1], the “kmet” value amounted to 0.54 min⁻¹. Moreover, in the series with anoxic HT29 tumor tissue (anoxic HT29 tumor tissue, from D and kmet), the “X½ (penetration half distance)” value is 100 μm. With `[O-][n+]1nc(CCCN2CCOCC2)[n+]([O-])c2cc3c(cc21)CCO3` [TTO 40], in series [2], the “E(1)” value is recorded as −468 mV. Also, the “kmet” value in series [1] is 0.31 min⁻¹. Regarding `CCc1n[n+]([O-])c2cc3c(cc2[n+]1[O-])CN(C)CC3` [TTO 41], the “E(1)” value in series [2] is −344 mV. Consider `Nc1n[n+]([O-])c2ccccc2[n+]1[O-]` [compound 1, tirapazamine], for which the logP7.4 calc in series [4] is −0.33. Also, in series [5], the Sol. is reported as 9 mM. For the same compound, the “E(1)” value in series [6] is given as −456 mV. The term pKa denotes the pH at which an ionisable group is half protonated. One may read the IC50 as the concentration that inhibits the measured activity by half. As to `COc1ccc2c(c1)[n+]([O-])c(NCCN(C)C)n[n+]2[O-]` [compound 2], the pKa in [7] is listed as 8.5. Besides, in series [4], the logP7.4 calc is on record as −0.07. Also, the Sol. in series [5] is given as 46 mM. Also, the “E(1)” value in series [6] was −500 mV. The “lowering of E(1) by 6-OMe substituent” value in series [6] (relative to the 3-dimethylaminoethylamine BTO) is 104 mV. Also, the IC50 in the series with HT29 cells [8] was 7.7 µM; in the series with SiHa cells (read-out: SiHa IC50 hypox, anoxic), 2.9 µM. Also, the “SiHa HCR” value in the series with SiHa cells (oxic IC50/hypoxic IC50) is 232. Moreover, the “D calc (diffusion coefficient in HT29 MCLs)” value in the series with HT29 MCLs is 2.9 ×10^−7 cm^2s^−1. Further, in series [9], the “kmet” value is 0.54 min⁻¹.
